Results reported in US9737493B2, “Compositions and methods for modulating DNMT1 inhibitor activity” (University of Louisville Research Foundation, Inc., priority 2012, dated 2017).

Tests used:
A549 cells [1] = assay: Western blot for PARP-1 and caspase-3 cleavage; type: cell-based, human; details: A549, 2 μM XB05
Method: (§1) FIG. 3: XB05 Induces Apoptotic and Nonapoptotic Cell Death in Malignant Cell Lines. (A) Trypan blue exclusion assay for three human cell lines following treatment with XB05 for 72 h at the concentrations indicated. Data points represent the mean+/−SEM for three independent experiments. (B) Representative phase contrast microscopy images of cells treated with vehicle (72 h), XB05 (72 h with 1 μM for U937 and Hs27, or 2 μM for A549), or 6 μg/mL camptothecin (U937 for 6 h, A549 and Hs27 for 48 h). Cells undergoing apoptotic (black arrows) or non-apoptotic (white arrows) cell death are indicated. (C) Whole cell extracts from cells treated with vehicle, camptothecin, or XB05, as described in part B were western blotted for biochemical markers of apoptosis and GAPDH (loading control). […]
(§2) Western Blotting. […] Proteins were detected using the following primary antibody concentrations: PARP-1 (1:1000), cleaved caspase-3 (1:1000), γ-H2AX (Ser139) ([…]), phospho-eIF2α (Ser51) (1:1000), eIF2α (1:1000), Bip (1:1000), Nrf2 (1:1000), Ku-70 (1:1000) and GAPDH (1:1000). […] Where indicated, band intensities were quantified using the UN-SCAN-IT Gel digitizing software (Silk Scientific, Orem Utah) and normalized to vehicle control.

U937 cells [2] = assay: Western blot for PARP-1 and caspase-3 cleavage; type: cell-based, human; details: U937, 1 μM XB05
Method: as §1, §2

A549 cells [3] = assay: Western blot for Nrf2 in nuclear extracts; type: cell-based, human; details: A549, 2 μM, 8 or 24 h
Method: (§3) FIG. 8: XB05 Modulates Cellular Stress Responses. (A) A luminescence-based assay for reduced glutathione (GSH) content in cells treated 24 h with XB05 (1 μM for U937 and Hs27, or 2 μM for A549), in the absence or presence of 5 mM GSH. Some cells were treated with buthionine sulfoximine (BSO, 200 μM) plus diethyl maleate (DEM, 1 mM) for 3 h as a positive control for GSH depletion. Bar graph indicates mean+/−SEM from three independent experiments. […] (C) Western blot for Nrf2 in nuclear extracts from cells treated as in part A for either 8 h or 24 h. Membranes were stripped and reprobed for Ku-70 as a loading control. (D) Western blot for phospho-eIF2α (Ser51), total eIF2-α, BiP/Grp78, and GAPDH (loading control) in whole cell extracts from cell lines treated as indicated for 24 h with concentrations of XB05 described in part A. Thapsigargin (TG, 2 μM) was used as a positive control for induction of endoplasmic reticulum (ER) stress.
(§4) Cell Extracts. […] Nuclear cells extracts were isolated using the NE-PER Nuclear and Cytoplasmic Extraction Kit (Thermo Scientific, Rockford, Ill.), per the manufacturer's protocol. For total cell extract, cells were lysed in RIPA buffer (Thermo Scientific) containing protease inhibitor cocktail III and phosphatase inhibitor cocktail (Calbiochem, Billerica, Mass.) for 5 min at 4° C., and then cleared by centrifugation at 16,000 g for 10 min at 4° C. All protein concentrations were determined using the DC Protein Assay™ kit (BioRad, Hercules, Calif.).
as §2

Hs27 cells = assay: Western blot for Nrf2 in nuclear extracts; type: cell-based, human; details: Hs27, 1 μM, 8 or 24 h
Method: as §3, §4, §2

U937 cells [4] = assay: Western blot for Nrf2 in nuclear extracts; type: cell-based, human; details: U937, 1 μM, 8 or 24 h
Method: as §3, §4, §2

DU145 cells = assay: MTT cell proliferation assay; type: cell-based; details: Homo sapiens, DU-145; DU145, 72 h
Method: (§5) Cell Proliferation Assays. The antiproliferative activity of XB05 was tested using a previously published 3-(4,5-dimethylthiazol-2-yl)-2,5-diphenyltetrazolium bromide (MTT) assay protocol (Girvan et al., “AGRO100 inhibits activation of nuclear factor-kappaB (NF-kappaB) by forming a complex with NF-kappaB essential modulator (NEMO) and nucleolin” Molecular Cancer Therapeutics (2006) Vol. 5, No. 7, pp. 1790-1799). Briefly, cells were seeded in quadruplicate wells in 96-well plates and allowed to adhere overnight. […] Plates were incubated with XB05 for 72 h, during which the cell culture medium was not changed. Cell viability was determined and the background corresponding to medium alone (no cells) was subtracted. Data were analyzed as described in the Brief Description of the Drawings.
(§6) XB05 has Cancer-Selective Antiproliferative Activity. XB05 was tested to determine its antiproliferative activity in a variety of human cell lines that are derived from malignant tissues or from non-malignant (immortalized but not transformed) cells and listed in FIG. 1B. As described in Materials and Methods, cells were treated with varying concentrations of XB05 for 72 h and evaluated using the MTT cell proliferation assay.

MDA-MB-231 cells = assay: MTT cell proliferation assay; type: cell-based; details: Homo sapiens, MDA-MB-231, 72 h
Method: as §5, §6

[5] = system: Hs27 non-malignant skin fibroblasts; assay: MTT cell proliferation assay; type: cell-based, human; details: Hs27, MTT 72 h
Method: as §5, §6

[6] = system: A549 non-small cell lung cancer cells; assay: MTT cell proliferation assay; type: cell-based, human; details: A549, MTT 72 h
Method: as §5, §6

[7] = system: U937 myeloid leukemia cells; assay: MTT cell proliferation assay; type: cell-based, human
Method: as §5, §6

- GI50 (DU145 cells): < 0.5 µM
- GI50 (MDA-MB-231 cells): < 0.5 µM
- GI50 ([7]; Homo sapiens, U-937, U937, 72 h): < 0.5 µM
SMILES: CCCCCC(O)C#CC(F)(F)Br (centres unmarked) [XB05]
- time at which PARP-1 and caspase-3 cleavage were apparent (A549 cells [1]): 48 h
- time at which PARP-1 and caspase-3 cleavage were apparent (U937 cells [2]): ≤ 24 h
- nuclear Nrf2 (A549 cells [3]): slight increase in nuclear levels of Nrf2
- nuclear Nrf2 (Hs27 cells): no change
- nuclear Nrf2 (U937 cells [4]): decrease in nuclear Nrf2
- sensitivity to XB05 [5]: low sensitivity
- sensitivity to XB05 [6]: moderate sensitivity
- sensitivity to XB05 ([7]; U937, MTT 72 h): high sensitivity
